According to ChEMBL document CHEMBL5241095, “Developments of CRBN-based PROTACs as potential therapeutic agents” (Eur J Med Chem, 2021):

Biological target: Protein cereblon/Peptidyl-prolyl cis-trans isomerase FKBP1A (Homo sapiens, UniProt P62942+Q96SW2)
Test: Protac activity at CRBN/FKBP12 in human Jurkat cells
Format: cell-based

Chain of Protein cereblon/Peptidyl-prolyl cis-trans isomerase FKBP1A (P62942 whole entry): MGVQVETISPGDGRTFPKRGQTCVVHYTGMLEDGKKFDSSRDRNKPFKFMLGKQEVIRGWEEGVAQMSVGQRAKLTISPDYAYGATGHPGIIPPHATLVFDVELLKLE
Chain of Protein cereblon/Peptidyl-prolyl cis-trans isomerase FKBP1A (Q96SW2 whole entry): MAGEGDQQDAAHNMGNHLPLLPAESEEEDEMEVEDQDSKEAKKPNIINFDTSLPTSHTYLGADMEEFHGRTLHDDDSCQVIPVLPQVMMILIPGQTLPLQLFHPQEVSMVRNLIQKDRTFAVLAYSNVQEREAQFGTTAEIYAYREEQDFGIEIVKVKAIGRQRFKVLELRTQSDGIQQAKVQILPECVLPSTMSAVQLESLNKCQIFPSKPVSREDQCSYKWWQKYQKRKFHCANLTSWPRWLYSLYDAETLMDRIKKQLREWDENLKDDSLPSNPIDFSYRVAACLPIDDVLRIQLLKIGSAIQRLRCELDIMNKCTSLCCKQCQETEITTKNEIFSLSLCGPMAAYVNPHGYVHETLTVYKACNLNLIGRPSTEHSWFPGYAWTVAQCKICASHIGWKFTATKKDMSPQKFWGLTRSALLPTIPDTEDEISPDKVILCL

DC50: 300 pM
Compound: COC1C(=O)[C@H](C)C[C@H](C)/C=C/C=C/C=C(\C)[C@@H](OC)C[C@@H]2CC[C@@H](C)[C@@](O)(O2)C(=O)C(=O)N2CCCC[C@H]2C(=O)O[C@H]([C@H](C)C[C@@H]2CC[C@@H](OCCOCc3cn(CCOCCOCCNc4cccc5c4C(=O)N(C4CCC(=O)NC4=O)C5=O)nn3)[C@H](OC)C2)CC(=O)[C@H](C)/C=C(\C)[C@H]1O (stereo partly specified)
